# Measured values published in patent publication US20240024403A1, “Compositions and Methods for Managing Weight” (Unigen, Inc., priority 2012, published 2024).
# “Also recorded” adds a separate entry of the source.
# Test: High fat diet induced obesity (DIO) mouse model
# Assay type: in vivo, C57CL/6J mice
# Set-up: NSAH (sum) [NASH score]: scale not given here
# Settings: for Total Body Weight / Body Weight: in g (unit assumed)
# Description: C57CL/6J mice aged 4-6 weeks (Korea Research Institute of Bioscience & Biotechnology, Ohchang, Korea) were housed in Polycarbonate cages (five mice per cage) in a room with a 12 hr:12 hr light-dark cycle and an ambient temperature of 24° C. All the mice were fed a commercial chow diet for 1 week after arrival in the animal facility. Mice were then divided into normal and obesity groups and fed with normal diet (ND) and high fat diets (HFD) respectively. The HFD group was divided into multiple treatment groups: a high fat diet vehicle group (HFD), an orlistat (purchased as OTC drug Alli®) positive control treatment group (ORI, 40 mg/kg of animal weight, 2 times/day) and optionally a sibutramine positive control treatment group (10 mg/kg, 1 time/day). The HFD contained 340 g of fat/kg of HFD (310 g lard plus 30 g soybean oil; Harlan Laboratories, USA). The HFD was formulated to provide 60% of the total energy generated by the diet from fat by replacing carbohydrate energy with lard and soybean oil, whereas the normal diet (ND) group was fed a diet providing only 18% of the total diet energy from fat(Harlan Laboratories, USA).
# Body weight was measured once each week and feed intake was measured twice per week. At the end of the experimental period, following a 12 hr. fasting period, the animals were anesthetized with ether, and blood was drawn from the abdominal vein. Liver and kidney and adipose tissues (epididymal, retroperitoneal, perirenal adipose tissues) were removed from each animal, rinsed with physiological saline, and weighed. Serum concentrations of glucose, total cholesterol, triglycerides, and LDL-cholesterol were determined using automatic analyzer (INTEGRA 400, Roche, Germany). Statistical significance of test results was measured using the Student's t-test.
# [1] = mice fed a high fat diet, Mutamba fractions 250 mg/kg oral 2 times per day, mean
# [2] = orlistat 40 mg/Kg/day oral, 8 weeks
# [3] = orlistat 40 mg/kg oral, 7 weeks
# [4] = orlistat 40 mg/kg, 2 times/day, listed as orlistat
# [5] = score 0-3, orlistat 40 mg/kg oral
# [6] = week 1, DIO mice, oral twice daily, mg/kg/day: ORI 40, Combo (Composition 1A) 800, Magnolia 100, Yerba Mate 500, Morus 200
# [7] = week 1, DIO mice, combination (5:1) 1200 mg/kg twice a day by gavage, group mean
# [8] = week 1, mice fed a high fat diet, Mutamba fractions 250 mg/kg oral 2 times per day, mean
# [9] = week 2, DIO mice, oral twice daily, mg/kg/day: ORI 40, Combo (Composition 1A) 800, Magnolia 100, Yerba Mate 500, Morus 200
# [10] = week 2, DIO mice, combination (5:1) 1200 mg/kg twice a day by gavage, group mean
# [11] = week 2, mice fed a high fat diet, Mutamba fractions 250 mg/kg oral 2 times per day, mean
# [12] = week 3, DIO mice, oral twice daily, mg/kg/day: ORI 40, Combo (Composition 1A) 800, Magnolia 100, Yerba Mate 500, Morus 200
compound,measurement,setting,value
"CCCCCCCCCCC[C@@H](C[C@@H]1OC(=O)[C@H]1CCCCCC)OC(=O)[C@H](CC(C)C)NC=O [ORI, orlistat]",FER (Food efficiency ratio),"mice fed a high fat diet, FER = body weight gain (g/day)/food intake (g/day), Mutamba fractions 250 mg/kg oral 2 times per day, mean",0.034
same,Body Weight Gain,[1],0.093 g/day
same,Food Intake,[1],2.769 g/day
same,Absolute Organ Weight: Epididymal Fat,[2],2.03 g
same,Absolute Organ Weight: Liver,[2],1.19 g
same,Absolute Organ Weight: PeriRenal Fat,[2],0.29 g
same,Absolute Organ Weight: Retroperitoneal Fat,[2],0.5 g
same,Absolute Organ Weight: Total Fat (sum of three fat pads),[2],2.82 g
same,Food Efficiency Ratio (FER),[2],−0.001
same,Food Intake (average),[2],3.147 g/day
same,Relative Organ Weight: Epididymal Fat,[2],0.05
same,Relative Organ Weight: Liver,[2],0.03
same,Relative Organ Weight: PeriRenal Fat,[2],0.01
same,Relative Organ Weight: Retroperitoneal Fat,[2],0.01
same,Relative Organ Weight: Total Fat,[2],0.07
same,Weight Gain (average),[2],-0.004 g/day
same,Food Efficiency Ratio (FER),[3],0.000
same,Food Intake (average per day),[3],3.195 g/day
same,Weight Gain (average per day),[3],0.000 g/day
same,blood biochemistry parameters vs HFD group,"orlistat 40 mg/kg, 2 times/day","statistically significant decrease in LDL-cholesterol; also recorded: statistically significant decreases in total cholesterol, LDL-cholesterol, and fasting glucose; also recorded: statistically significant decreases in ALT and LDL-cholesterol; also recorded: statistically significant decrease in ALT"
same,body weight gain vs HFD group,"orlistat 40 mg/kg, 2 times/day",greatest change in weight gain between week 2 and week 3; also recorded: statistically significant decreases in body weight gains each week after the first week of treatment; also recorded: statistically significant decreases in body weight gain across all weeks of the study; also recorded: statistically significant decreases in body weight gain from week 1 through to week 7; also recorded: statistically significant decreases in weight gain from week 1 through to week 8
same,body weight gain vs HFD group,[4],significant reduction in body weight gain at 7 weeks
same,"weight gain per day, food intake per day, food efficiency ratio (FER) vs HFD group",[4],significantly reduced FER
same,Liver pathology: Hepatocellular ballooning (0-2),"score 0-2, orlistat 40 mg/kg oral",0.67
same,Liver pathology: Lobular Inflammation (0-3),[5],1.33
same,Liver pathology: Steatosis (0-3),[5],0.67
same,NSAH (sum) [NASH score],"sum of scores, orlistat 40 mg/kg oral",2.67
same,Total Body Weight,"week 0, DIO mice, oral twice daily, mg/kg/day: ORI 40, Combo (Composition 1A) 800, Magnolia 100, Yerba Mate 500, Morus 200",40.22
same,Total Body Weight,"week 0, DIO mice, combination (5:1) 1200 mg/kg twice a day by gavage, group mean",38.40
same,Total Body Weight,"week 0, ORI 40 mg/kg, DIO mice (Table 52)",39.96
same,Total Body Weight,"week 0, ORI 40 mg/kg, DIO mice",42.76
same,Body Weight,"week 0, mice fed a high fat diet, Mutamba fractions 250 mg/kg oral 2 times per day, mean",39.76
same,Weight Gain,[6],−2.24
same,Total Body Weight,[6],37.98
same,Body Weight Gain,"week 1, DIO mice, SIB 10 mg/kg, ORI 40 mg/kg, Mutamba extract 32 (G1) 1000 mg/kg/day oral, mean",−2.59
same,Body Weight Gain,"week 1, DIO mice, SIB 10 mg/kg, ORI 40 mg/kg, Mutamba extract 33-2 G1 1000 mg/kg, mean",−3.05
same,Weight Gain,"week 1, DIO mice, combination (1:1) 2000 mg/kg twice a day, group mean",−3.20
same,Weight Gain,[7],−3.20
same,Total Body Weight,[7],35.20
same,Total Body Weight,"week 1, ORI 40 mg/kg, DIO mice (Table 52)",37.37
same,Total Body Weight,"week 1, ORI 40 mg/kg, DIO mice",38.73
same,Body Weight Gain,"week 1, ORI 40 mg/kg, mice fed high fat diet",−4.00
same,Body Weight Gain,[8],−3.05
same,Body Weight,[8],36.71
same,Weight Gain,"week 1, orlistat 40 mg/kg oral",−5.43
same,Weight Gain,[9],−6.14
same,Total Body Weight,[9],34.08
same,Body Weight Gain,"week 2, DIO mice, SIB 10 mg/kg, ORI 40 mg/kg, Mutamba extract 32 (G1) 1000 mg/kg/day oral, mean",−2.90
same,Body Weight Gain,"week 2, DIO mice, SIB 10 mg/kg, ORI 40 mg/kg, Mutamba extract 33-2 G1 1000 mg/kg, mean",−2.81
same,Weight Gain,"week 2, DIO mice, combination (1:1) 2000 mg/kg twice a day, group mean",−4.88
same,Weight Gain,[10],−4.88
same,Total Body Weight,[10],33.58
same,Total Body Weight,"week 2, ORI 40 mg/kg, DIO mice (Table 52)",37.05
same,Total Body Weight,"week 2, ORI 40 mg/kg, DIO mice",35.09
same,Body Weight Gain,"week 2, ORI 40 mg/kg, mice fed high fat diet",−7.38
same,Body Weight Gain,[11],−2.81
same,Body Weight,[11],36.95
same,Weight Gain,"week 2, orlistat 40 mg/kg oral",−6.69
same,Weight Gain,[12],−4.91
same,Total Body Weight,[12],35.32
same,Body Weight Gain,"week 3, DIO mice, SIB 10 mg/kg, ORI 40 mg/kg, Mutamba extract 32 (G1) 1000 mg/kg/day oral, mean",−2.55
same,Body Weight Gain,"week 3, DIO mice, SIB 10 mg/kg, ORI 40 mg/kg, Mutamba extract 33-2 G1 1000 mg/kg, mean",−2.63
same,Weight Gain,"week 3, DIO mice, combination (1:1) 2000 mg/kg twice a day, group mean",−3.34
same,Weight Gain,"week 3, DIO mice, combination (5:1) 1200 mg/kg twice a day by gavage, group mean",−3.34
